Converted amounts (≈) assume the structure as drawn. Read-outs that look alike come from different tables or passages of the source.
Legend:
[1] = system: P. aeruginosa (PAO1); assay: MIC of conventional antibiotics alone; type: cell-based; conditions: Pseudomonas aeruginosa, PAO1
[2] = system: S. aureus ATCC 25923; assay: Minimum inhibitory concentration (MIC), microplate dilution; type: cell-based; conditions: Staphylococcus aureus, ATCC25923; Table I; Mueller-Hinton medium, 37° C., 24 h
Procedure: (§1) A positive control (1940 μl of culture medium+40 μl of DMSO+20 μl of the bacterial suspension) from a defrosted biological strain (the preservation of the biological strains is carried out at −80° C. in glycerol). The strains used are S. aureus ATCC 25923, E. coli ATCC 25922, P. aeruginosa ATCC 27853, C. albicans CIP 1180-79 and E. faecalis CIP 103015.
(§2) The microorganisms were handled under a hood in the laboratory of L2 type and, before any handling operation, a UV cycle was programmed and only sterile material was used. […] The chemical molecules to be tested were prepared in a DMSO/methanol (50/50) mixture at a concentration of 5 mg/ml.
(§3) After incubating for 24 h, the optical density was measured using a spectrophotometer at 600 nm by withdrawing 100 μl of the bacterial suspension diluted in 900 μl of the sterile culture medium. This test required the use of a 96-well plate and the necessary volume of the microbial suspension to be inoculated was calculated for an OD corresponding to a value equal to 0.01 in each well. In this plate, the first line corresponded to the negative control (195 μl of sterile culture medium in each well), the second line to the positive control (inoculated culture medium with the addition of 2% of DMSO), the third line was charged twice with bacterial suspension, 8 μl of product to be tested was placed in each well. Subsequently, cascade half dilution was carried out starting from this line.
(§4) The first column was used as inhibition control. A sterile filter was subsequently placed on the microplate, allowing the passage of gases but not of contaminants. The microplate was incubated at 37° C. in a humid atmosphere for 24 h.
(§5) NB: The medium used is the Mueller-Hinton (MH) medium for the bacteria. All the tests were carried out in duplicate.
(§6) After incubation, the filter was replaced with a transparent film and subsequently reading of OD was carried out in an IEMS plate spectrophotometer at 620 nm. A calculation of the minimum inhibitory concentration (MIC) was carried out.

[3] = system: P. aeruginosa ATCC 27853; assay: as above; type: cell-based; conditions: Pseudomonas aeruginosa, ATCC27853; Table I; Mueller-Hinton medium, 37° C., 24 h
Procedure: as §1, §2, §3, §4, §5, §6

[4] = system: CHO-K1 cells; assay: WST-1 cytotoxicity test; type: cell-based, Chinese hamster; conditions: Cricetulus griseus, WST-1 test, 24 hours, concentration reducing cell viability by 50%
Procedure: The WST-1 test was used to measure the cytotoxic activity of the products. This is a colorimetric test which makes it possible to measure the viability and the degree of cell proliferation.
The WST-1 test was carried out on Chinese hamster ovary cells. The CHO-K1 cells (ATCC, USA) are kept cultured in McCoy's 5 A medium additivated with 10% of fetal calf serum, with 2 mM of L-glutamine and with a penicillin/streptomycin mixture (100 U/ml: 10 μg/ml). Incubating is carried out at 37° C. under an atmosphere enriched in CO2 (5%) and subculturing is carried out every two days.
The cells are transferred into 96-well plates (25 000 cells/ml) in complete McCoy's 5 A medium and are maintained at 37° C. for 24 h under a humid atmosphere enriched in CO2 (5%). Increasing concentrations of test products are added to the wells in duplicate tests and 8 growth controls containing the cells in the medium alone are included in each series of tests. After 24 hours at 37° C. (5% of CO2), the culture medium is removed, the cells are rinsed in phosphate buffer (PBS) and 50 μl of PBS containing 10% of WST-1 reactant are added to each well. After incubating at 37° C. for 20 minutes, the results are read by spectrophotometry at 450 nm.
The results are expressed in the form of dose-response relationships, modeled by a nonlinear regression analysis using the TableCurve software.

[5] = system: C. albicans; assay: Minimum inhibitory concentration (MIC), microplate dilution; type: cell-based, C. albicans CIP 1180-79; conditions: Candida albicans; Table I; 37° C., 24 h
Procedure: as §1, §2, §3, §4, §5, §6

[6] = system: S. faecalis; assay: as above; type: cell-based, E. faecalis CIP 103015; conditions: Enterococcus faecalis; Table I; Mueller-Hinton medium, 37° C., 24 h
Procedure: as §1, §2, §3, §4, §5, §6

[7] = system: S. aureus Methicillin-resistant; assay: as above; type: cell-based; conditions: Staphylococcus aureus
Procedure: (§7) A positive control (1940 μl of culture medium+40 μl of DMSO+20 μl of the bacterial suspension) from a defrosted biological strain (the preservation of the biological strains is carried out at −80° C. in glycerol).
as §2, §3, §4, §5, §6

[8] = system: E. coli ATCC 25922; assay: as above; type: cell-based; conditions: Escherichia coli, ATCC25922
Procedure: as §7, §2, §3, §4, §5, §6

[9] = system: P. aeruginosa (PAO1); assay: Potentiating of doxycycline activity by aminosteroidal derivative; type: cell-based, Pseudomonas aeruginosa; conditions: Doxycycline concentration used 2 μg/ml, 37° C., 24 h
Procedure: (§8) This method requires the use of a 96-well plate; 100 μl of a liquid culture medium are deposited in each well and then inoculated with the microbial suspension prepared above. The necessary volume to be inoculated is calculated for an OD of 0.01, which corresponds to approximately 5×10^6 bacteria in each well. In this plate, the first line corresponds to a negative control (200 μl of sterile culture medium in each well), the second line to a positive control (100 μl of sterile culture medium+100 μl of a bacterial suspension), the third line contains 192 μl of culture medium; 8 μl of aminosteroidal product to be tested are placed in each well. Subsequently, cascade dilution is carried out starting from this line. 8 μl of a doxycycline solution (1 mg dissolved in 20 ml) are subsequently added to each well of lines 3 to 8, in order to obtain a final concentration of antibiotic of 2 μg/ml. 92 μl of bacterial suspension are subsequently added to lines 3 to 8. The results (the determination of the MIC (2 μg/ml of doxycycline) in the presence of X μg/ml of aminosteroidal derivative) are read after incubating at 37° C. for 24 h in a humid atmosphere. After incubating at 37° C. for 24 h, 40 μl of nitrotetrazolium iodide are added to each well, making it possible to reveal the presence of living bacteria by coloring the medium pink.
(§9) The use of low amounts of aminosteroidal derivatives makes it possible to restore (to reduce) the necessary concentration of antibiotic to kill the strain under consideration.

[10] = system: P. aeruginosa (PAO1); assay: Potentiating of chloramphenicol activity by aminosteroidal derivative; type: cell-based, Pseudomonas aeruginosa; conditions: Chloramphenicol concentration used 4 μg/ml
Procedure: as §8, with “8 μl of a doxycycline solution (1 mg dissolved in 20 ml) are subsequently added to each well of lines 3 to 8, in order to obtain a final concentration of antibiotic of 2 μg/ml.” left out, “The results (the determination of the MIC (2 μg/ml of doxycycline) in the presence of X μg/ml of aminosteroidal derivative) are read after incubating at 37° C. for 24 h in a humid atmosphere.” left out
as §9

[11] = Table I, Mueller-Hinton medium, 37° C., 24 h
[12] = Table II, comparison with state of the art compounds
[13] = Table I, Mueller-Hinton medium, 37° C., 24 h, read-out: MIC E. coli ATCC 25922
[14] = Table II, comparison with state of the art compounds, read-out: MIC E. coli

SMILES	MIC [1]	MIC [2]	MIC [3]	IC50 [4]	MIC [5]	MIC [6]	MIC [7, 11]	MIC [7, 12]	MIC [8, 13]	MIC [8, 14]	Concentration of compound necessary in order to restore the activity of the antibiotic under consideration: Doxycycline [9]	Concentration of compound necessary in order to restore the activity of the antibiotic under consideration: Chloramphenicol [10]
O=C(N[C@H](CO)[C@H](O)c1ccc([N+](=O)[O-])cc1)C(Cl)Cl [chloramphenicol]	1020 µg/mL	–	–	–	–	–	–	–	–	–	–	–
CC(C)CCC[C@@H](C)[C@H]1CCC2C3C(CC[C@@]21C)[C@@]1(C)CC[C@H](NCCCCN)C[C@@H]1C[C@H]3O (stereo partly drawn) [SA-5, 3β-(1,4-Diaminobutane)-7β-hydroxy-5α-cholestane]	–	4 µg/mL (≈ 8.42 µM)	32 µg/mL (≈ 67.4 µM)	15 µM	4 µg/mL (≈ 8.42 µM)	4 µg/mL (≈ 8.42 µM)	4 µg/mL (≈ 8.42 µM)	4 µg/mL (≈ 8.42 µM)	32 µg/mL (≈ 67.4 µM)	32 µg/mL (≈ 67.4 µM)	–	–
CC(C)CCC[C@@H](C)[C@H]1CCC2C3C(CC[C@@]21C)[C@@]1(C)CC[C@H](NCCCNCCCCNCCCN)C[C@@H]1C[C@H]3O (stereo partly drawn) [SA-1, 3β-Spermino-7α-hydroxy-5α-cholestane]	–	4 µg/mL (≈ 6.79 µM)	32 µg/mL (≈ 54.3 µM)	15 µM	2 µg/mL (≈ 3.4 µM)	2 µg/mL (≈ 3.4 µM)	2 µg/mL (≈ 3.4 µM)	2 µg/mL (≈ 3.4 µM)	16 µg/mL (≈ 27.2 µM)	16 µg/mL (≈ 27.2 µM)	4 µg/mL	16 µg/mL
CC(C)CCC[C@@H](C)[C@H]1CCC2C3C(CC[C@@]21C)[C@@]1(C)CC[C@H](NCCCNCCCN)C[C@@H]1C[C@@H]3O (stereo partly drawn) [SA-3, 3β-Norspermidino-7β-hydroxy-5α-cholestane]	–	5 µg/mL (≈ 9.65 µM)	40 µg/mL (≈ 77.2 µM)	32 µM	2.5 µg/mL (≈ 4.83 µM)	2.5 µg/mL (≈ 4.83 µM)	2.5 µg/mL (≈ 4.83 µM)	2.5 µg/mL (≈ 4.83 µM)	20 µg/mL (≈ 38.6 µM)	20 µg/mL (≈ 38.6 µM)	5 µg/mL	10 µg/mL
CC(C)CCC[C@@H](C)[C@H]1CCC2C3C(CC[C@@]21C)[C@@]1(C)CC[C@H](NCCCNCCCCNCCCN)C[C@@H]1C[C@@H]3O (stereo partly drawn) [SA-2, 3β-Spermino-7β-hydroxy-5α-cholestane]	–	4 µg/mL (≈ 6.79 µM)	32 µg/mL (≈ 54.3 µM)	50 µM	2 µg/mL (≈ 3.4 µM)	2 µg/mL (≈ 3.4 µM)	2 µg/mL (≈ 3.4 µM)	2 µg/mL (≈ 3.4 µM)	32 µg/mL (≈ 54.3 µM)	32 µg/mL (≈ 54.3 µM)	4 µg/mL	16 µg/mL
CC(C)CCC[C@@H](C)[C@H]1CCC2C3C(CC[C@@]21C)[C@@]1(C)CC[C@H](NCCN(CCN)CCN)C[C@@H]1C[C@H]3O (stereo partly drawn) [SA-6, 3β-(Tris(2-aminoethyl)amine)-7β-hydroxy-5α-cholestane]	–	5 µg/mL (≈ 9.38 µM)	40 µg/mL (≈ 75.1 µM)	46 µM	2.5 µg/mL (≈ 4.69 µM)	2.5 µg/mL (≈ 4.69 µM)	5 µg/mL (≈ 9.38 µM)	5 µg/mL (≈ 9.38 µM)	20 µg/mL (≈ 37.5 µM)	20 µg/mL (≈ 37.5 µM)	2.5 µg/mL	20 µg/mL
CC(C)CCC[C@@H](C)[C@H]1CCC2C3C(CC[C@@]21C)[C@@]1(C)CC[C@H](NCCCN)C[C@@H]1C[C@H]3O (stereo partly drawn) [SA-4, 3β-(1,3-Diaminopropane)-7β-hydroxy-5α-cholestane]	–	4 µg/mL (≈ 8.68 µM)	32 µg/mL (≈ 69.4 µM)	9 µM	2 µg/mL (≈ 4.34 µM)	2 µg/mL (≈ 4.34 µM)	2 µg/mL (≈ 4.34 µM)	2 µg/mL (≈ 4.34 µM)	32 µg/mL (≈ 69.4 µM)	32 µg/mL (≈ 69.4 µM)	–	–
CC(C)[C@@H](CC[C@@H](C)[C@H]1CC[C@H]2[C@@H]3[C@H](O)C[C@H]4C[C@@H](NCCCNCCCCN)CC[C@]4(C)[C@H]3CC[C@]12C)OS(=O)(=O)O [Squalamine, squalamine]	–	4 µg/mL (≈ 6.37 µM)	20 µg/mL (≈ 31.8 µM)	–	2 µg/mL (≈ 3.18 µM)	4 µg/mL (≈ 6.37 µM)	4 µg/mL (≈ 6.37 µM)	–	12 µg/mL (≈ 19.1 µM)	–	1.75 µg/mL	1.75 µg/mL
